Measurements from ChEMBL document CHEMBL1121386, “Synthesis and analgesic activity of some 14 beta-substituted analogues of morphine” (1980).

Species on record: Cavia porcellus
Test: Tested for analgesic activity in the guinea pig ileum preparation relative to normorphine (1)
Assay type: functional

Row | SMILES | Relative activity
1 | CN1CCC23c4c5ccc(O)c4O[C@H]2C(=O)C=C[C@@]3(Cl)C1C5 (stereo partly specified) | 0.5
2 | CN1CCC23c4c5ccc(O)c4O[C@H]2C(=O)C=C[C@@]3([N+](=O)[O-])C1C5 (stereo partly specified) | 0.006
3 | CN1CCC23c4c5ccc(O)c4O[C@H]2C(=O)C=C[C@@]3(Br)C1C5 (stereo partly specified) | 0.4
4 | CN1CCC23c4c5ccc(O)c4O[C@H]2[C@@H](O)C=C[C@@]3(O)C1C5 (stereo partly specified) | 0.8
5 | CC(=O)N[C@@]12C=C[C@H](OC(C)=O)[C@@H]3Oc4c(O)ccc5c4C31CCN(C)C2C5 (stereo partly specified) | 0.6
6 | CN1CCC23c4c5ccc(O)c4O[C@H]2[C@@H](O)C=C[C@@]3(S)C1C5 (stereo partly specified) | 0.4
